Results as given in ChEMBL document CHEMBL1201862, “PubChem BioAssay data set” (2004).
Calls of active or inactive are those of the source. Rule as the data show it: actives have a measured IC50 and inactives only a lower limit.

Target: Envelope glycoprotein gp160 (Human immunodeficiency virus 1, UniProt Q6QLK5)
Experiment: cell-free HIV fusion peptide-binding blockers – biochemical, uHTS, fluorescence dequenching, […] (AID 1986)

Envelope glycoprotein gp160, sequence (Q6QLK5 whole entry, the tested form may be a part): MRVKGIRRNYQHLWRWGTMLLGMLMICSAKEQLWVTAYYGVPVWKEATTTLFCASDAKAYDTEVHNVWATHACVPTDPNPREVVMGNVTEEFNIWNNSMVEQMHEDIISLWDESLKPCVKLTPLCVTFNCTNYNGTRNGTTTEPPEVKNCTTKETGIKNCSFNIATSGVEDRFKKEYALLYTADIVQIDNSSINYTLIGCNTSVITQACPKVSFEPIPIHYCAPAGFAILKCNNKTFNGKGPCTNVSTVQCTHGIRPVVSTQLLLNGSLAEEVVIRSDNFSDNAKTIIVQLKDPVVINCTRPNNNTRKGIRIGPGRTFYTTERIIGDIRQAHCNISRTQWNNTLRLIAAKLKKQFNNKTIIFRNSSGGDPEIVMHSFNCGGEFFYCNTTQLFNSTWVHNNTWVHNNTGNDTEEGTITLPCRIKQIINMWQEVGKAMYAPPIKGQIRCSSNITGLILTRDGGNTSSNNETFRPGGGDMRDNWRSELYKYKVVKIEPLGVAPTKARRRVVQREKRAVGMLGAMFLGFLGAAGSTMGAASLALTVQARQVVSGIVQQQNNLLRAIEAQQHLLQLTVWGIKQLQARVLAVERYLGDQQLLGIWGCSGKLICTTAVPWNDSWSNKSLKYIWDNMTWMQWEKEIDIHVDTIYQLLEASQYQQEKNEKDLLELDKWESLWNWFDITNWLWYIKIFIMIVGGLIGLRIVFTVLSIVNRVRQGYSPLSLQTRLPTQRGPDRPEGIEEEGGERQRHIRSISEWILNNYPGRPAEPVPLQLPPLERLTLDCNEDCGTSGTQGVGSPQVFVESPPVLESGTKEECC

In the case of `CCOC(=O)c1sc2nc3c(SCCC(=O)O)cc(C(=O)c4cc(OC)ccc4O)cn3c(=O)c2c1C`, the IC50 is reported as 16 µM (active).
